Test results reported in patent US8822698B2, “Aminoacid derivatives, their process of preparation and their therapeutical uses as inhibitors of oncogenic signals by the Met family” (Universite D'Aix-Marseille, priority 2009, dated 2014).

Tests used:
[1] = test system: Met-triggered cell scattering, MDCK cells; test: HGF-induced MDCK cell scattering assay; type: cell-based; conditions: Canis lupus familiaris; MDCK cells, 20 ng/ml HGF; read-out: IC50 scattering inhibition
Protocol: MDCK cells were grown in Dulbecco's modified Eagle's medium (DMEM) (Gibco BRL) containing 4 mM L-glutamine and supplemented with 2% (v/v) foetal bovine serum (Gibco BRL), 100 U/mL penicillin, and 100 μg/mL streptomycin. Cells were plated at a density of 1000 cells per well in 24-well microplates and allowed to settle overnight at 37° C. in a humidified atmosphere of 5% CO2 prior to treatments. MCF10A human breast cells, MDA-MB231 human breast cancer cells, GTL-16 human gastric carcinoma cells, HepG2 human hepatocellular carcinoma cells, U-87 human glioblastoma-astrocytoma cells and LLC Lewis lung carcinoma cells were grown in RPMI medium (Gibco BRL) containing 4 mM L-glutamine and supplemented with 2% (v/v) foetal bovine serum (Gibco BRL), 100 U/mL penicillin, and 100 μg/mL streptomycin and kept at 37° C. in a humidified atmosphere of 5% CO2.
For scattering assays, MDCK cells were pre-incubated with compounds for 2 hours at 0.1-100 μM concentrations at 37° C. in a humidified atmosphere of 5% CO2, followed by 24 hr stimulation with 20 ng/ml HGF (R&D Systems), as previously described (Patane et al., Biochem Biophys Res Commun 375, 184-189, 2008). The cells were further incubated at 37° C. in an atmosphere of 5% CO2 for 24-48 hours, washed with phosphate-buffered saline (PBS; Gibco BRL), and fixed in PFA (Sigma). The quantification of scattering response was performed by counting the number of cells with scattered morphology in 30 independent colonies. The […] corresponds to the concentration of compounds leading to a 50% inhibition of Met-triggered cell scattering. Active compounds were assayed to impair scattering response also on human breast MCF10A cells following the same procedure. For survival assays, GTL-16, HepG2 and U-87 cells were cultured in serum-free media for 24 hours prior to compound addition for 48 hours. Viability was assessed with the Cell Titer Glo Luminescent Assay (Promega). For in vitro tumorigenesis, soft agar growth assays were preformed using GTL-16, HepG2, and U-87 cells, as previously described (Patane et al., Cancer Res 66, 4750-4757, 2006).
Compounds were first submitted to a biological screening of cell motility, namely scattering response. MDCK epithelial cells acquire a “scattered phenotype” following stimulation by the Met ligand, HGF (Chan et al., J Biomol Screen. 13, 847-854, 2008; Corso et al., Trends Mol Med 11, 284-292, 2005; Patane et al., Biochem Biophys Res Commun 375, 184-189, 2008), allowing direct evaluation of compounds on Met functions. The Met inhibitor […] was used as control in all assays (Schiering et al., Proc Natl Acad Sci USA 100, 12654-12659, 2003).

GTL-16 cells = test: In vivo tumorigenesis, GTL-16 cells injected intra-peritoneally in nude mice
Protocol: Xenografts of GTL-16 cells were established by intraperitoneal (i.p.) or subcutaneously (into the flank/leg region) injection of cells (10^6) in nude mice (S/SOPF SWISS NU/NU; Charles River). Mice were then treated with the compound of example 4 (i.p. 30 mg kg-1) or vehicle every two days (GTL-16 cell intra-peritoneally injected at d=0, treatment started at d=1) or every day (GTL-16 cell intra-peritoneally injected at d=0, treatment started at d=7; GTL-16 cell subcutaneously injected at d=0, treatment started at d=1). Treatments were performed either one day or seven days after cancer cell injection. Mice were then sacrificed, and tumor nodule numbers present in the peritoneal cavity, the measure of their diameter and their total weight was evaluated. Three independent tumorigenesis assays were performed (8 mice per group were used).
We evaluated the ability of compounds of general formula to impair tumour growth in vivo using nude mice injected intra-peritoneally with GTL-16 cells. […] For example, when compounds were administered one day after intraperitoneally injection of GTL-16 cells, the mean numbers of nodules were the following: a) mice trated with vehicle: <1 mm: 3; 1-2 mm: 9.3; 2-5 mm: 11; >5 mm: 3.5. b) mice treated with the compound of example 4: <1 mm: 0.3; 1-2 mm: 1.3; 2-5 mm: 1; >5 mm: 0.8 (FIG. 3). […] Moreover, tumour growth of GTL-16 cells subcutaneously injected was reduced by approximately 35% in mice treated with compounds (data not shown). Taken together, these findings provide evidence that the identified new scaffold interferes with tumour growth in vivo.

A498 = test: NCI 60 human tumour cell line screen; type: cell-based; conditions: conc. 10^−5M; A498, Renal Cancer
Excerpt: (§1) Compound of example 4 was screened in the NCI 60 human tumour cell line anticancer drug screen (Shoemaker et al Nature reviews 6, 2006, 813-823).

COLO 205 = test: NCI 60 human tumour cell line screen; type: cell-based; conditions: conc. 10^−5M; COLO 205, Colon Cancer
Excerpt: as §1

KM12 = test: NCI 60 human tumour cell line screen; type: cell-based; conditions: conc. 10^−5M; KM12, Colon Cancer
Excerpt: as §1

MDA-MB-231/ATCC = test: NCI 60 human tumour cell line screen; type: cell-based; conditions: conc. 10^−5M, Breast Cancer
Excerpt: as §1

NCl-H23 = test: NCI 60 human tumour cell line screen; type: cell-based; conditions: conc. 10^−5M; NCl-H23, Non-Small Cell Lung Cancer
Excerpt: as §1

NCl-H460 = test: NCI 60 human tumour cell line screen; type: cell-based; conditions: conc. 10^−5M; NCl-H460, Non-Small Cell Lung Cancer
Excerpt: as §1

OVCAR-3 = test: NCI 60 human tumour cell line screen; type: cell-based; conditions: conc. 10^−5M; OVCAR-3, Ovarian Cancer
Excerpt: as §1

OVCAR-8 = test: NCI 60 human tumour cell line screen; type: cell-based; conditions: conc. 10^−5M; OVCAR-8, Ovarian Cancer
Excerpt: as §1

SF-539 = test: NCI 60 human tumour cell line screen; type: cell-based; conditions: conc. 10^−5M; SF-539, CNS Cancer
Excerpt: as §1

SK-OV-3 = test: NCI 60 human tumour cell line screen; type: cell-based; conditions: conc. 10^−5M; SK-OV-3, Ovarian Cancer
Excerpt: as §1

UACC-62 = test: NCI 60 human tumour cell line screen; type: cell-based; conditions: conc. 10^−5M; UACC-62, Melanoma
Excerpt: as §1

UO-31 = test: NCI 60 human tumour cell line screen; type: cell-based; conditions: conc. 10^−5M; UO-31, Renal Cancer
Excerpt: as §1

[2] = i.p. 30 mg kg-1, treatment one day after i.p. injection of GTL-16 cells
[3] = nude mice injected i.p. with GTL-16 cells

O=C(Cc1cc(C(F)(F)F)cc(C(F)(F)F)c1)N[C@@H](Cc1ccccc1)C(=O)Nc1ccc(-c2cn3c(n2)sc2ccccc23)cc1 [Example 4, (S)-2-(3,5-bis(trifluoromethyl)phenylacetamido)-3-phenyl-N-[4-(imidazo[2,1-b]benzothiazol-2-yl)phenyl]propanamide]
IC50 [1]: 171 nM | mean number of nodules 1-2 mm (GTL-16 cells; [2]): 1.3 | mean number of nodules 2-5 mm (GTL-16 cells; [2]): 1 | mean number of nodules <1 mm (GTL-16 cells; [2]): 0.3 | mean number of nodules >5 mm (GTL-16 cells; [2]): 0.8 | number of tumours (GTL-16 cells; [3]): drastically reduced | total weight of tumours (GTL-16 cells; [3]): drastically reduced | Growth Percent (A498): 120.10% | Growth Percent (COLO 205): 71.04% | Growth Percent (KM12): 16.15% | Growth Percent (MDA-MB-231/ATCC): 17.15% | Growth Percent (NCl-H23): 39.55% | Growth Percent (NCl-H460): −16.59% | Growth Percent (OVCAR-3): 2.50% | Growth Percent (OVCAR-8): 3.54% | Growth Percent (SF-539): 36.76% | Growth Percent (SK-OV-3): 96.62% | Growth Percent (UACC-62): 69.45% | Growth Percent (UO-31): 67.05%
